In brackets after ≈: the same amount, converted by molar mass.
Experiments:
[1] = Pharmacokinetic study in rat; assay type: in vivo; conditions: in vivo; for Tmax: Tmax (h)
Protocol: The Silymarin-CAPTISOL® complex was administered to rat to test its pharmacokinetic properties.
On arrival rats were housed individually in cages at animal care facility in a temperature and humidity controlled room with a 12 h:12 h (light:dark) cycles. The rats were provided with free access to food and water for one week before using for experimental purpose. The 12 rats were equally divided into three groups—Group I: silymarin-CAPTISOL® complex with a CAPTISOL® concentration of 100 mM for oral administration; Group II: silymarin suspension (Control); and Group III: silymarin complex with a CAPTISOL® concentration of 100 mM for intravenous administration. The animals were fasted overnight with free access to water. On the day of experiment, the rat was removed from animal care facility and brought to the procedure lab. The animal was weighed and appropriate dosing volume was determined. For oral administration, rat's head was held in place by gently extending the head back and supporting the lower body. The gavage tube was placed in the mouth and advanced along the lower palate till the esophagus, and the silymarin was administered through the tube. For intravenous administration, the silymarin-CAPTISOL® complex was administered by slow bolus intravenous injection into the tail vein. Approximately 200 μL blood was drawn into heparin coated tubes at pre dose, 0.15, 0.5, 1, 2, 4, 8, 10 and 24 h for oral group II and for intravenous group III. The sampling time points were predose, 0.12, 0.25, 0.5, 1, 2, 4, 8 and 24 h through the jugular vein catheter. Plasma was harvested by centrifuging the blood at 4000 RPM for 5 min and stored frozen at −80±10° C. until analysis.
Stored plasma was thawed just before performing the silymarin components analysis. 200 μL of acetonitrile containing 0.1% of ammonia was added to 50 μL of plasma, and this mixture was vortexed for 5 min and centrifuged at 4° C. for 5 min at 10,000 RPM. After centrifugation, the supernatant was separated and injected into HPLC for analysis of silymarin constituents taxifolin, silydianin, silychristin, silybin A, silybin B, isosilybin A and isosilybin B.
The plasma concentration-time curves of silybin A, silybin B, isosilybin A, and isosilybin B in the Silymarin-CAPTISOL® sample of Group I and the control sample (silymarin suspension) are respectively shown in FIGS. 20A to 20D.

[2] = Silymarin solubility in water, CAPTISOL® solution and γ-cyclodextrin solution (Example 2, HPLC); assay type: physicochemical; conditions: water, thermodynamic from solid, Solubility (mg/ml) of components of silymarin
Protocol: The solutions were centrifuged for 10 min at 13K rpm. An aliquot of the supernatant was diluted 1:5 for Water, 1:25 for γ-Cyclodextrin and 1:100 for both 0.20 M CAPTISOL® and 0.20M HP-B-Cyclodextrin using MeOH as the diluent. The standard reference was prepared by dissolving silymarin in 10 mg/mL of DMSO and then diluted to 0.50 mg/mL using MeOH.
The change of the saturated solubility of the various components of silymarin in each of the four types of samples can be seen in FIG. 4.
The data shown in Table 6 is plotted in FIGS. 5 and 6. The change of the solubility of the various components of silymarin in each of the three samples can be seen in FIG. 5. The total mutual saturated solubility of all flavonolignan components can be seen in FIG. 6. […] The various components of silymarin also have increased solubility in the CAPTISOL® (0.2M) sample.

[3] = Solubility of silymarin components in water (Example 10, HPLC); assay type: physicochemical; conditions: water
Protocol: (§1) Silymarin components including taxifolin, silydianin, silychristin, silybin A, silybin B, isosilybin A, and isosilybin B were tested for their solubility in water and also for their Log D value. The silymarin extract was obtained from Indena® (Indena Code: 9065110). The HPLC system consisted of Waters system equipped with performance PLUS inline degasser along dual λ absorbance detector set at 288 nm. The chromatographic separation of silymarin constituents was achieved on a Symmetry Shield RP18 column (150×4.6 mm, 5 μm); which was maintained at ambient room temperature conditions. The binary mobile phase system consisted of reservoir A (methanol: 10 mM ammonium acetate pH 5 [65:35 v/v]) and reservoir B (10 mM ammonium acetate, pH 5) were run as per gradient program (0-1.9 min: 25% A and 75% B; 2.0-14.9 min: 80% A and 20% B and 15-37.9 min: 80% A and 20% B and 38-40 min: 25% A and 75% B). The flow rate was 1 mL/min throughout the analytical run.

physchem = conditions: 25 °C, water, thermodynamic from solid, Solubility (mg/ml) of flavonolignan components of silymarin
Protocol: CAPTISOL® was dissolved in water to form four solutions with a CAPTISOL® concentration of 0.05 mol/L, 0.1 mol/L, 0.2 mol/L, and 0.3 mol/L respectively. 12 mg of silymarin powder (Sigma Aldrich) was added to 1 mL of each of the four CAPTISOL® solutions on Day 1, another 12 mg Silymarin powder was added on Day 3, and 19-22 mg Silymarin powder was added on Day 7 to ensure that silymarin reached its maximum solubility in each solution. The solutions were stirred in a water bath at 25° C. The solutions were then centrifuged prior to sampling. The supernatant was diluted in MeOH in preparation for HPLC assay.
A reference standard was prepared by mixing silymarin with methanol to provide a methanol solution with a silymarin concentration of 0.1 mg/ml.
HPLC was used to measure the relative concentrations of the different components of silymarin in each sample solution following the method described in Kuki et al., (2012) Chromatogram 75:175-180. The relative concentration of each component of silymarin was measured by comparing the normalized peak area units with that of the standard reference measured by the UV data at 288 nm and assuming equivalent extinction coefficients for all components.
The relative molar amounts of the ten flavonolignan components of silymarin were calculated by dividing the normalized peak area of each component in a sample by the total normalized peak area of the sample.
The concentration of each flavonolignan component of silymarin was calculated from the peak areas in Tables 1a and 1b and the total concentration of silymarin (0.1 mg/ml) in the reference sample, assuming constant extinction coefficients for each component.

[4] = Log D of silymarin components (octanol/buffer, HPLC); assay type: physicochemical; conditions: pH 7.4
Protocol: as §1
To determine the Log D of silymarin components, the silymarin extract (2 mg) was dissolved in 100% DMSO and then used for the experiment. Different buffers between pH ranges of 1.0 to 12 were prepared by using universal buffer stock containing 25 mM hydrochloric acid, 25 mM citric acid, 25 mM phosphoric acid, 30 mM boric acid and 20 mM sodium chloride. About 45 mL of universal buffer was titrated with Sodium hydroxide (5M) to obtain desired pH. A 10 μL of silymarin stock solution was spiked into Eppendorf tube containing 500 μL each of a buffer and presaturated octanol. This mixture was vortexed for 5 minutes and kept for shaking at room temperature. After 16 h, the mixture was centrifuged at 10,000 RPM for 30 minutes. After centrifugation buffer and octanol phases were separated, both phases were diluted with acetonitrile (1:1) and subject to HPLC analysis for quantitation of individual components of silymarin. The Log D values of each compound at a pH was determined by Log D (pH)=Log [Organic (peak area)/Aqueous (peak area)].

AUC(0-t) ([1]; iv, AUC(0-2 h) (ng · h/mL)) [ng·h/mL]	Cmax ([1]; iv, Cmax (ng/mL)) [ng/mL]	Tmax ([1]; iv) [min]	% Fabs of silymarin-CAPTISOL® complex compared with silymarin alone ([1]; po)	AUC of Silymarin-CAPTISOL® complex compared with the control sample ([1]; po)	AUC(0-2 h) ([1]; po) [ng·h/mL]	Cmax of Silymarin-CAPTISOL® complex compared with the control sample ([1]; po)	Tmax ([1]; po) [min]	solubility [2] [µg/mL]	solubility [3] [µg/mL]	solubility (physchem) [µg/mL]	logD at 16 h [4]	SMILES
1970	4160	4.2	higher % Fabs	higher AUC	150	higher Cmax	30	40 (≈ 82.9 µM)	18.8 (≈ 39 µM)	40 (≈ 82.9 µM)	2.47	COc1cc([C@H]2Oc3ccc([C@H]4Oc5cc(O)cc(O)c5C(=O)[C@@H]4O)cc3O[C@@H]2CO)ccc1O [Isosilybin A]
–	–	–	–	–	–	–	–	120 (≈ 249 µM)	232 (≈ 481 µM)	70 (≈ 145 µM)	1.64	COc1cc([C@@H]2[C@H]3CO[C@@]4(O)C(=O)[C@@H]2C=C([C@H]2Oc5cc(O)cc(O)c5C(=O)[C@@H]2O)[C@@H]34)ccc1O [Silydianin]

From patent US10702568B2, “Compositions containing silymarin and sulfoalkyl ether cyclodextrin and methods of using the same” (UNIVERSITY OF KANSAS, priority 2015, dated 2020)
